These results are taken from ChEMBL document CHEMBL5385957, “Pleonotoquinones, Cytotoxic Oxepinenaphthoquinones from Pleonotoma jasminifolia” (J Nat Prod, 2024).

One data set relates to HepG2. Put plainly: Cytotoxicity against human HepG2 cells assessed as cell growth inhibition. The format is functional, cell-based.
A short description of data set [1]: Cytotoxicity against human MRC5 cells assessed as cell growth inhibition. The format is toxicity, cell-based.
A further data set concerns HCT-116. Briefly: Cytotoxicity against human HCT-116 cells assessed as cell growth inhibition. The format is functional, cell-based.
Data set [2] can be described thus: Selectivity index, ratio of IC50 for human MRC5 cells to IC50 for human HepG2 cells. It counts as toxicity. To be noted: MRC5 cells versus HepG2 cells, read-out: Ratio IC50.
The nature of data set [3]: Selectivity index, ratio of IC50 for human MRC5 cells to IC50 for human HCT-116 cells. The format is toxicity. The note with it: MRC5 cells versus HCT-116 cells, read-out: Ratio IC50.

For `COc1c(O)ccc2c(=O)c3cccc(C)oc=3c(=O)c12`, the results for the IC50 (in the data set on HepG2; in data set [1]; in the data set on HCT-116) were 1.9 µM, 8.2 µM and 2.6 µM, respectively. For the same compound, the selectivity ratio was 4.1 in data set [2] and 3.1 in data set [3].
As to `COc1ccc2c(c1OC)C(=O)c1cc(C)ccc1C2=O`, the IC50 (in the data set with HepG2; in data set [1]; in the data set on HCT-116) was > 10 µM each time.
As to `COc1c(O)ccc2c1C(=O)c1cc(C)ccc1C2=O`, the half-inhibitory concentration (IC50) (in the data set on HepG2; in data set [1]; with HCT-116) was > 10 µM throughout.
On to `COc1ccc2c(=O)c3cccc(C)oc=3c(=O)c2c1OC`, for which the half-maximal inhibitory concentration (IC50) in the data set on HepG2 is 6.4 µM; in data set [1], > 10 µM; with HCT-116 it was 4.3 µM. Moreover, the selectivity ratio in data set [2] was 1.9; in data set [3] it was 2.9.
For `COc1cccc2c1C(=O)c1c(O)c3c(c(O)c1C2=O)C[C@@](O)(C(=O)CO)C[C@@H]3O[C@H]1C[C@H](N)[C@H](O)[C@H](C)O1` [DOXORUBICIN], the results for the IC50 (in the data set on HepG2; in data set [1]) were 0.7 µM and 3.5 µM, respectively.
